This is an account of results in ChEMBL document CHEMBL6153067, “Transition State Analogs of Human DNPH1 Reveal Two Electrophile Migration Mechanisms” (J Med Chem, 2025).

Calls of active or inactive are those of the source. The rule behind the calls is not given here.

Assay [1] has as its target T1, 5-hydroxymethyl-dUMP N-hydrolase (Homo sapiens, UniProt O43598).
T1 sequence (O43598 whole entry): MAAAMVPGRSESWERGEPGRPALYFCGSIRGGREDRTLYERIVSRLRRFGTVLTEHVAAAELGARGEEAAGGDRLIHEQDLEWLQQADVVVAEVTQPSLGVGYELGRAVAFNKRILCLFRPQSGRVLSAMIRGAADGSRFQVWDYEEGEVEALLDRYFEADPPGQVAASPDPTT
Kind of assay: Competitive inhibition of wild-type truncated human DNPH1 extracted from Escherichia coli BL21DE3 using hmdUMP as substrate preincubated for 30 mins followed by substrate addition measured after 60 mins in presence of NADH.

Assay [2] addresses T1, 5-hydroxymethyl-dUMP N-hydrolase. Kind of assay: Inhibition of wild-type truncated human DNPH1 extracted from Escherichia coli BL21DE3 assessed as decrease in hmdUMP hydrolysis preincubated for 30 mins followed by hmdUMP addition measured after 30 mins in presence of NADH.
The target is the same in assay [3]. Kind of assay: Binding affinity to wild-type truncated human DNPH1 extracted from Escherichia coli BL21DE3 assessed as dissociation constant by ITC analysis.
Assay [4] concerns the target T2, 5-hydroxymethyl-dUMP N-hydrolase (Homo sapiens) (UniProt O43598).
T2 sequence (whole entry): T1 sequence (O43598 whole entry)
The following applies: dose 1.0 mM, time 30.0 min.

Assay [5] has as its target T1, 5-hydroxymethyl-dUMP N-hydrolase. Kind of assay: Binding affinity to DNPH1 (unknown origin) assessed as equilibrium constant.

For the compound `O=P(O)(O)OC[C@H]1CN(Cc2ccccc2)C[C@@H]1O`, in assay [1], the Ki was over 50 µM. As to `O=c1[nH]c(=O)n([C@@H]2O[C@H](COP(=O)(O)O)[C@@H](O)[C@@H]2O)cc1CO`, the Kd in assay [1] is over 50 µM. Moreover, in assay [2], the IC50 was over 100 µM. Regarding `O=P(O)(O)OC[C@H]1CN(Cc2cccnc2)C[C@@H]1O`, in assay [1], the Ki was found to be 20.7 µM.

Consider `O=c1[nH]c(CN2C[C@H](COP(=O)(O)O)[C@@H](O)C2)c(CO)c(=O)[nH]1`, for which the Ki in assay [1] is over 50 µM.

For the compound `Nc1ncnc2c(CN3C[C@H](COP(=O)(O)O)[C@@H](O)C3)c[nH]c12`, the Ki in assay [1] is 2.85 µM. Consider `O=c1cc(CN2C[C@H](COP(=O)(O)O)[C@@H](O)C2)[nH]c(=O)[nH]1`, for which the inhibition constant (Ki) in assay [1] stood at 5.17 µM. The same measure, in the same setting: the same measure for `COc1nc(OC)c(CN2C[C@H](COP(=O)(O)O)[C@@H](O)C2)cc1F`: 12.3 µM; for `Nc1nc2c(CN3C[C@H](COP(=O)(O)O)[C@@H](O)C3)c[nH]c2c(=O)[nH]1`: 6.5 µM; for `O=P(O)(O)OC[C@H]1CNC[C@@H]1OP(=O)(O)O`: over 50 µM.

`O=P(O)(O)OC[C@H]1CN(Cc2cc(CO)c(F)nc2F)C[C@@H]1O`: the inhibition constant Ki in assay [1] is 5.14 µM. Regarding `O=c1[nH]c(=O)n([C@@H]2O[C@H](COP(=O)(O)O)[C@@H](O)[C@@H]2F)cc1CO`, the Kd in assay [3] stood at 0.43 µM; in assay [1], 0.57 µM. Further, the inhibition result in assay [4] was “Active; Potent Than Ump”. Besides, the IC50 in assay [2] amounted to 1.5 µM. For `O=c1[nH]c(=O)n([C@@H]2O[C@H](COP(=O)(O)O)[C@@H](O)[C@H]2O)cc1CO`, in assay [1], the Kd was found to be 0.6 µM. In addition, in assay [4], the inhibition result is “Active; Potent Than Ump”. The 50% inhibitory concentration (IC50) in assay [2] worked out at 1.3 µM. In the case of `O=P(O)(O)OC[C@H]1CN(Cc2ccc(F)nc2F)C[C@@H]1O`, the Ki in assay [1] amounted to 25.8 µM.

In the case of `O=P(O)(O)OC[C@H]1NCC[C@@H]1O`, the Ki in assay [1] was over 50 µM. With `O=c1[nH]c(=O)n([C@H]2C[C@H](O)[C@@H](CP(=O)(O)O)O2)cc1CO`, the Kd in assay [5] is 6.3 µM. Take `O=c1[nH]cc(CN2C[C@H](COP(=O)(O)O)[C@@H](O)C2)cc1CO`: the Ki in assay [1] was 0.61 µM. On the same count and under the same terms, the same measure for `O=P(O)(O)OC[C@H]1NC[C@H](O)[C@@H]1O`: over 50 µM; for `O=P(O)(O)OC[C@H]1CN(Cc2cncc(CO)c2)C[C@@H]1O`: 3.67 µM; for `O=c1[nH]cccc1CN1C[C@H](COP(=O)(O)O)[C@@H](O)C1`: 36.8 µM. For the compound `O=P(O)(O)OC[C@H]1CNC[C@@H]1O`, the Kd in assay [3] worked out at 1.3 µM. Besides, in assay [1], the Ki is 3.3 µM.
